Laboratory results from patent publication US20220402917A1, “COMPOUND AS SMALL MOLECULE INHIBITOR PD-1/PD-L1 AND APPLICATION THEREOF” (MEDSHINE DISCOVERY INC., priority 2019, published 2022).
pIC50: −log10 of the molar value.

Experiments:
PD1/PD-L1 [1] = molecular target: T1, PD1/PD-L1 (Homo sapiens, UniProt Q9NZQ7); assay: NFAT activity test (TCR Activitor/PD-L1 CHO cells with PD-1/NFAT Reporter-Jurkat cells); type: cell-based; parameters: host or cells: TCR Activitor/PD-L1 CHO cells; PD-1/NFAT Reporter-Jurkat cells; details: TCR Activitor/PD-L1 CHO cells + PD-1/NFAT Reporter-Jurkat cells, 5 hours, luciferase
In short: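 TCR activator/PD-L1 CHO cells were pretreated 30 min at 37 °C with compound (20 μM to 0.25 nM, 5-fold steps, 2% DMSO). PD-1/NFAT reporter Jurkat cells were then added for 5 h at 37 °C. NFAT-driven luciferase read by Bright-Glo luminescence, normalised to Min/Max, IC50 from 4-parameter fit.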
Target sequence in this assay (Q9NZQ7 19-290): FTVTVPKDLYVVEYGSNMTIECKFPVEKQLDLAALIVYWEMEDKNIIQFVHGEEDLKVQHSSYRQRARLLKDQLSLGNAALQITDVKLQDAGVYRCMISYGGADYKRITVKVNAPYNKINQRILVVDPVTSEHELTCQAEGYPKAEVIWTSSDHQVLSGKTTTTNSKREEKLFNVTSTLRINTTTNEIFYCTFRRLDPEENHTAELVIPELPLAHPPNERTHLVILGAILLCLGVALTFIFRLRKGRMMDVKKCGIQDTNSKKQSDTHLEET

[2] = Pharmacokinetic test in C57BL/6 mice; type: in vivo; details: mouse, plasma, male C57BL/6 mice
Procedure: Experimental Example 4: Pharmacokinetic Test
Experimental purpose: To study the pharmacokinetics of compounds in C57BL/6 mice.
Experimental materials: C57BL/6 mice (male, 8 weeks old, body weight 25 g-30 g)
Experimental operation: The pharmacokinetic characteristics of rodents after intravenous (IV) and oral (PO) administration of compounds were tested in standard protocols. In the experiment, the candidate compounds were formulated into 1 mg/mL clear solutions, and administered to mice via a single intravenous injection and oral administration. The vehicle of intravenous and oral administration was 5% DMSO/5% polyethylene glycol 15-hydroxystearate (Solutol)/90% aqueous solution. Four male C57BL/6 mice were used in the experiment, wherein two mice were administered intravenously at a dose of 1 mg/kg, and the plasma samples were collected 0.0833, 0.25, 0.5, 1, 2, 4, 6, 8 and 24 h after administration, the other two mice were given oral gavage at a dose of 10 mg/kg, and the plasma samples were collected 0.25, 0.5, 1, 2, 4, 6, 8, and 24 h after administration. Whole blood samples within 24 hours were collected, centrifuged at 3000 g for 15 minutes, and the supernatant was separated to obtain plasma samples. Acetonitrile solution containing internal standard was added thereto to precipitate proteins, the mixture was thoroughly mixed and centrifuged to obtain the supernatant for injection. The plasma concentration was quantified by LC-MS/MS analysis method, and the pharmacokinetic parameters were calculated, such as peak concentration (Cmax), clearance (CL), half-life (T1/2), […] (Vdss), area under the drug-time curve (AUC0-last), bioavailability (F) and so on.

PD1/PD-L1 [3] = molecular target: T1, PD1/PD-L1; assay: PD-1/PD-L1 homogeneous time-resolved fluorescence (HTRF) binding experiment; parameters: purchased BPS Biosciences; details: HTRF (TR-FRET), PD-L1-biotin, PD1-Eu
Text: Experimental Example 1: PD-1/PD-L1 Homogenouse Time-Resolved Fluorescence (HTRF) Binding Experiment
When the PD-1 molecule as the donor is very close to the PD-L1 molecule as the acceptor, the donor molecule will transfer the energy to the receptor molecule, which in turn causes the receptor molecule to emit fluorescence. The ability of small molecules to prevent the binding of PD-L1 to PD-1 can be tested by detecting the intensity of fluorescence. A homogeneous time-resolved fluorescence (HTRF) binding experiment is used to detect the ability of the compounds of the present disclosure to inhibit the binding of PD-1/PD-L1.
PD1/PD-L1 TR-FRET detection kit was purchased from BPS Biosciences. Nivo multi-label analyzer (PerkinElmer).
PD1-Eu, Dye-labeled acceptor, PD-L1-biotin and compounds to be tested were diluted with the buffer in the kit. The compounds to be tested were subjected to 5-fold dilution to eight concentration gradients with a row gun. That is, from 40 μM to 0.5 nM, the DMSO concentration was 4%, and a double-well experiment was set up. 5 μL of inhibitor with each concentration gradient were added to the microwell plate, and 5 μL buffer containing 4% DMSO and 5 μL PD-L1-biotin (PD-L1-biotin) (60 nM) were added into well with the maximum signal (Max) and the well with the minimum signal (Min), only 5 μL of buffer was added to the well with the minimum signal (Min), and the incubation was conducted at 25° C. for 20 minutes. After the incubation was completed, 5 μL of diluted PD1-Eu (10 nM) and […] were added to each well. The reaction system was placed at 25° C. for 90 minutes. The TR-FRET signal was read by a multi-label analyzer after the reaction was completed.
Using the equation (sample−Min)/(Max−Min)×100% to convert the raw data into inhibition rate, and the IC50 value can be obtained by curve fitting with four parameters (obtained from log(inhibitor) vs. response—Variable slope mode in GraphPad Prism). Table 1 provides the inhibitory activity of the compounds of the examples of the present disclosure on PD1/PD-L1 binding
Target sequence in this assay (Q9NZQ7 19-239 limits assumed): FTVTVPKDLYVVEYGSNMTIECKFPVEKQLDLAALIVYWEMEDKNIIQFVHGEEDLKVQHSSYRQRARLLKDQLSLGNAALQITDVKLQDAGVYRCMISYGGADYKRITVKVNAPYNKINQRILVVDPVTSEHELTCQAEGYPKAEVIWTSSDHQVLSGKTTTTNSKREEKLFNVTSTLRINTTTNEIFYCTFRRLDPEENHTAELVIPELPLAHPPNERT

## COc1nc(-c2cccc(-c3cccc(NC(=O)c4cc(C)c5c(n4)CN(CCO)CC5)c3Cl)c2Cl)cnc1CN1CC(O)C1 [Compound 21]
PD1/PD-L1 [1]
  Maximum effect (induction fold): 3.96 induction fold
PD1/PD-L1 [1]; read-out: IC50, inhibitory activity on PD1/PD-L1 binding (NFAT activity test)
  pIC50: 7.86
[2]; PO 10 mg/kg vs IV 1 mg/kg, read-out: Bioavailability F
  bioavailability: 34.9%
[2]; IV 1 mg/kg, PO 10 mg/kg (route not given for Cmax), read-out: Peak concentration Cmax
  Cmax: 117 nM
[2]; IV 1 mg/kg, read-out: Clearance CL
  clearance: 98.4 mL/min/kg
[2]; IV 1 mg/kg, read-out: Half-life T1/2 (IV) (converted)
  half-life: 11.6 h
[2]; IV 1 mg/kg, read-out: Tissue distribution Vdss
  Vd: 65.6 L/kg
[2]; PO 10 mg/kg, read-out: Area under the drug-time curve AUC0-last PO
  AUC(0-t): 0.796 µM·h
PD1/PD-L1 [3]
  pIC50: 8.15
